From patent US11547707B2, “Carbamoyl cyclohexane derivatives for treating autism spectrum disorder” (Richter Gedeon Nyrt., priority 2019, dated 2023)
Where two headings read alike, the source gives them in different places.

Legend:
Fmr1 knock-out mice = settings: Lim et al. 2014; cited from earlier work
dopamine D2 receptor [1] = target: T1, dopamine D2 receptor (Homo sapiens, UniProt P14416); experiment: functional activity at dopamine D2 receptor; assay type: biochemical; settings: Compound 2, company data
[2] = target: T2, serotonin 5-HT2B receptor (Homo sapiens, UniProt P41595); experiment: functional activity at serotonin 5-HT2B receptor; assay type: biochemical; settings: Compound 2, company data
[3] = target: T3, serotonin 5-HT1A receptor (Homo sapiens, UniProt P08908); settings: Compound 2, company data
T3 sequence (P08908 1-422): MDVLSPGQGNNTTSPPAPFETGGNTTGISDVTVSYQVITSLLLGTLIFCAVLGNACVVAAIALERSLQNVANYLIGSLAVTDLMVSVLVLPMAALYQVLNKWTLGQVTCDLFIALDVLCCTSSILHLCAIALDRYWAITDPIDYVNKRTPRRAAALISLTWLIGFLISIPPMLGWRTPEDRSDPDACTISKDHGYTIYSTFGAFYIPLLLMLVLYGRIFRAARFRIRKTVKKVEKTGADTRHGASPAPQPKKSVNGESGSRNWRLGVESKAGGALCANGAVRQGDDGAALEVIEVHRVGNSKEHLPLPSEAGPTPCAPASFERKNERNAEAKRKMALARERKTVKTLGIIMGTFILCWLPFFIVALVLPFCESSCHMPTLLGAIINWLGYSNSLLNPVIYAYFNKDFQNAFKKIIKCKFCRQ

[4] = target: T2, serotonin 5-HT2B receptor; settings: in vitro, literature; cited from earlier work
[5] = target: T3, serotonin 5-HT1A receptor; settings: in vitro, literature; cited from earlier work
[6] = target: T3, serotonin 5-HT1A receptor; settings: literature; cited from earlier work
[7] = tested on: ASD mouse models (prenatal valproate, Cntnap2 knockout, NR1 hypomorph, BTBR); settings: several ASD mouse models, literature; cited from earlier work
[8] = tested on: prenatally valproate-treated mice; settings: Hara et al. 2017, cited from earlier work
ASD patients = settings: cited from earlier work
dopamine D2 receptor [9] = target: T1, dopamine D2 receptor; settings: cited from earlier work
[10] = target: T2, serotonin 5-HT2B receptor; settings: literature; cited from earlier work
dopamine D2 receptors = settings: in vivo; cited from earlier work

T2 sequence (P41595 whole entry): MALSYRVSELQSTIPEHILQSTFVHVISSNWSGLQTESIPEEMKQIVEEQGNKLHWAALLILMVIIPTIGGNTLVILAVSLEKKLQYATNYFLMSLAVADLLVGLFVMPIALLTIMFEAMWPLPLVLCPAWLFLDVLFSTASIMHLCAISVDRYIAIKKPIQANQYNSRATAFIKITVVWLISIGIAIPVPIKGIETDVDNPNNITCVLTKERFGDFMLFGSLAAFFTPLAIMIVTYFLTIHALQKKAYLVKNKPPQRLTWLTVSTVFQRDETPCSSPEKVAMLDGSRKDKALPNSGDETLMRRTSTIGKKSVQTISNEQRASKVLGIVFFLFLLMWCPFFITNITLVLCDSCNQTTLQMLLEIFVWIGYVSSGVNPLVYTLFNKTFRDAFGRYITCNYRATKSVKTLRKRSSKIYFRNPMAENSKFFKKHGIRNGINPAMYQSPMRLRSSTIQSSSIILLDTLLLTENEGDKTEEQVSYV
T1 sequence (P14416 whole entry): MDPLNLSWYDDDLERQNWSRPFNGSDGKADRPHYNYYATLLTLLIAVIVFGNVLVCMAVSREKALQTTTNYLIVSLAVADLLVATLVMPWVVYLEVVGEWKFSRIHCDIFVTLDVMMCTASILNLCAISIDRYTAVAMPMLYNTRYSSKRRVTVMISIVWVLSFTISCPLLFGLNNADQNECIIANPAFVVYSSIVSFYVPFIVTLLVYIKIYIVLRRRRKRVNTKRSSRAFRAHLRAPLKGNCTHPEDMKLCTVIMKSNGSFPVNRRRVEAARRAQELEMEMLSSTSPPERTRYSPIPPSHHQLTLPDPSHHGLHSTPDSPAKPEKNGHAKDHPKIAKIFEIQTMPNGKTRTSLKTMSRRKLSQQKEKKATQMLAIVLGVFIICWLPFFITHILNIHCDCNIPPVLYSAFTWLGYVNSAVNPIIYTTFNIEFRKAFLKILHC

CC(N)Cc1c[nH]c2ccc(OCc3cccs3)cc12 (centres unmarked) [BW723C86]
effect on cognitive abilities (Fmr1 knock-out mice): improvement of cognitive abilities

O=C(N[C@H]1CC[C@H](CCN2CCN(c3cccc(Cl)c3Cl)CC2)CC1)N1CCOCC1 [Compound 2, trans-N-(4-{2-[4-(2,3-dichloro-phenyl)-piperazine-1-yl]-ethyl}-cyclohexyl)-morpholine-4 carboxamide]
functional character at dopamine D2 receptor (dopamine D2 receptor [1]): partial agonist | functional character at serotonin 5-HT2B receptor [2]: full antagonist | functional character at serotonin 5-HT1A receptor [3]: weak partial agonists

O=C1CCc2ccc(OCCCCN3CCN(c4cccc(Cl)c4Cl)CC3)cc2N1 [aripiprazole]
affinity for 5-HT2B receptor (in words) [4]: high affinity | affinity for 5-HT1A receptor (in words) [5]: high affinity | functional character at serotonin 5-HT1A receptor [6]: partial agonist | effect on social behavior deficits [7]: neither aripiprazole nor risperidone could improve | effect on core behavioral deficits ([8]; acute treatment): without effect | effect on core behavioral deficits ([8]; chronic administration): improved core behavioral deficits | lethargy/social withdrawal subscale of the Aberrant Behavioral Checklist (ASD patients; open label trials): did not improve

CN(C)C(=O)N[C@H]1CC[C@H](CCN2CCN(c3cccc(Cl)c3Cl)CC2)CC1 [cariprazine, trans-N-[4-[2-[4-(2,3-dichlorophenyl)piperazin-1-yl]ethyl]cyclohexyl]-N′,N′-dimethylurea]
functional character at dopamine D2 receptor (dopamine D2 receptor [9]): partial agonist | functional character at serotonin 5-HT2B receptor [10]: full antagonist | functional character at serotonin 5-HT1A receptor [6]: weak partial agonists | intrinsic activity at serotonin 5-HT1A receptor [6]: 38%

Cc1nc2n(c(=O)c1CCN1CCC(c3noc4cc(F)ccc34)CC1)CCCC2 [risperidone]
occupancy of dopamine D2 receptors (dopamine D2 receptors): occupy dopamine D2 receptors | effect on social behavior deficits [7]: neither aripiprazole nor risperidone could improve | effect on core behavioral deficits ([8]; acute treatment): without effect | effect on core behavioral deficits ([8]; chronic administration): improved core behavioral deficits | effect on core symptoms (ASD patients; children with pervasive developmental disorders with high baseline irritability): modest improvements
